From US11357779B2 (G1 Therapeutics, Inc., priority 2018, dated 2022)
Like-named read-outs stand apart in the source and are kept apart here.

Experiment: Plasma concentration versus time of Compound I and metabolite Compound III in patients dosed QD or BID with Form B of Compound II plus fulvestrant
Type: in vivo, human
Settings: human, plasma, oral, 650 mg; for concentration at 8 day: Day 8; for concentration at 15 day: Day 15; for concentration at 22 day: Day 22; for concentration at 0 h: Day 29, 0.0 h; for concentration at 1 h: Day 29, 1.0 h; for concentration at 2 h: Day 29, 2.0 h; for concentration at 3 h: Day 29, 3.0 h; for concentration at 4 h: Day 29, 4.0 h; for concentration at 6 h: Day 29, 6.0 h
Excerpt: Patients were enrolled into 1 of 2 parallel, independently operating, dose-escalation dosing cohorts with Form B of Compound II administered continuously either once daily (QD) or twice daily (BID) with food with fixed-dose fulvestrant (intramuscularly every 14 days for the first three injections and then every 28 days). Pre- or perimenopausal patients also received goserelin for the duration of study treatment. A […] agonist was started at least 28 days before the first dose of Form B, and those patients who were taking another LHRH agonist were switched to goserelin on Day 1. Patients were split into […] cohorts providing once a day (QD) dosing of 200 mg, 300 mg, 400 mg, 500 mg, or 650 mg of Form B, or twice a day (BID) dosing of 100 mg, 150 mg, or 200 mg of Form B. The second dose in BID cohorts was not administered in the evening until at least 12 hours after the initial morning dose of Form B. The dosing cohorts for Form B of Compound II are provided in Table 1.
Blood samples were collected at the following time points relative to the morning dose of Form B at Day 1 and at Day 29: pre-dose (0 hour) and 1, 2, 3, 4, 6, 8, 10, 12 (prior to the evening dose in the BID cohorts), and 24 (prior to the next day's morning dose) hours after dosing. A 5-minute time window was allowed for samples collected between the predose and 3 hours after Form B dosing. A 15-minute window was allowed for samples collected between 4 to 12 hours after Form B dosing. A 1-hour window was allowed for the sample collected 24 hours after Form B dosing. Blood samples for Compound I PK trough levels were collected pre-dose at Day 8, Day 15, and Day 22 prior to the morning administration of Compound I. Plasma concentrations of Compound I and its metabolite, Compound III, were measured using validated methods.
Analysis of plasma concentration versus time data for calculation of standard pharmacokinetic (PK) parameters following oral administration was conducted using Phoenix WinNonlin version 6.3 using actual blood sampling times.

[1] = Cohort 5, 650 mg QD of Form B, read-out: Trough Compound I Concentration, Max
[2] = Cohort 5, 650 mg QD of Form B, read-out: Trough Compound I Concentration, Mean
[3] = Cohort 5, 650 mg QD of Form B, read-out: Trough Compound I Concentration, Median
[4] = Cohort 5, 650 mg QD of Form B, read-out: Trough Compound I Concentration, Min
[5] = Cohort 5, 650 mg QD of Form B, read-out: Compound I Concentration, Max
[6] = Cohort 5, 650 mg QD of Form B, read-out: Compound I Concentration, Mean
[7] = Cohort 5, 650 mg QD of Form B, read-out: Compound I Concentration, Median
[8] = Cohort 5, 650 mg QD of Form B, read-out: Compound I Concentration, Min

`CC(C)N1CCN(c2ccc(Nc3ncc4cc5n(c4n3)C3(CCCCC3)CNC5=O)nc2)CC1` [Compound I, 2′-((5-(4-isopropylpiperazin-1-yl)pyridin-2-yl)amino)-7′,8′-dihydro-6′H-spiro[cyclohexane-1,9′-pyrazino[1′,2′:1,5]pyrrolo[2,3-d]pyrimidin]-6′-one] gave a concentration at 8 h (650 mg QD of Form B, Day 1, 8.0 h, Median, read-out: Compound I Concentration) of 60.3 ng/mL, a concentration at 10 h (650 mg QD of Form B, Day 1, 10.0 h, Mean, read-out: Compound I Concentration) of 48.4 ng/mL and a concentration at 10 h (650 mg QD of Form B, Day 1, 10.0 h, Median, read-out: Compound I Concentration) of 47.9 ng/mL. For the same molecule, the concentration at 12 h (650 mg QD of Form B, Day 1, 12.0 h, Mean, read-out: Compound I Concentration) was 37.4 ng/mL, the concentration at 12 h (650 mg QD of Form B, Day 1, 12.0 h, Median, read-out: Compound I Concentration) was 37.3 ng/mL and the concentration at 24 h (650 mg QD of Form B, Day 1, […], Mean, read-out: Compound I Concentration) was 17.1 ng/mL. The concentration at 24 h (650 mg QD of Form B, Day 1, […], Median, read-out: Compound I Concentration) was 16 ng/mL, the concentration at 8 day [1] was 43.9 ng/mL and the concentration at 8 day [2] was 28.9 ng/mL. It also gave a concentration at 8 day [3] of 28.3 ng/mL, a concentration at 8 day [4] of 17 ng/mL and a concentration at 15 day [1] of 30.7 ng/mL. It also gave a concentration at 15 day [2] of 25.7 ng/mL, a concentration at 15 day [3] of 27.4 ng/mL and a concentration at 15 day [4] of 19.1 ng/mL. It also gave a concentration at 22 day [1] of 43.7 ng/mL, a concentration at 22 day [2] of 30.3 ng/mL and a concentration at 22 day [3] of 24 ng/mL. The concentration at 22 day [4] was 23.3 ng/mL, the concentration at 0 h [5] was 28.9 ng/mL and the concentration at 0 h [6] was 20.9 ng/mL. It also gave a concentration at 0 h [7] of 22.5 ng/mL, a concentration at 0 h [8] of 11.4 ng/mL and a concentration at 1 h [5] of 29.6 ng/mL. For the same molecule, the concentration at 1 h [6] was 20.9 ng/mL, the concentration at 1 h [7] was 20.9 ng/mL and the concentration at 1 h [8] was 12.1 ng/mL. It also gave a concentration at 2 h [5] of 34.9 ng/mL, a concentration at 2 h [6] of 25.9 ng/mL and a concentration at 2 h [7] of 25.9 ng/mL. It also gave a concentration at 2 h [8] of 16.8 ng/mL, a concentration at 3 h [5] of 39.5 ng/mL and a concentration at 3 h [6] of 28.4 ng/mL. It also gave a concentration at 3 h [7] of 28.4 ng/mL, a concentration at 3 h [8] of 17.2 ng/mL and a concentration at 4 h [5] of 43.8 ng/mL. It also gave a concentration at 4 h [6] of 33.1 ng/mL, a concentration at 4 h [7] of 33.1 ng/mL and a concentration at 4 h [8] of 22.3 ng/mL. It also gave a concentration at 6 h [5] of 79.3 ng/mL, a concentration at 6 h [6] of 58.8 ng/mL and a concentration at 6 h [7] of 58.8 ng/mL. It also gave a concentration at 6 h [8] of 38.2 ng/mL, a concentration at 8 h (Cohort 5, 650 mg QD of Form B, Day 29, 8.0 h, read-out: Compound I Concentration, Max) of 88.7 ng/mL and a concentration at 8 h (Cohort 5, 650 mg QD of Form B, Day 29, 8.0 h, read-out: Compound I Concentration, Mean) of 66 ng/mL. For the same molecule, the concentration at 8 h (Cohort 5, 650 mg QD of Form B, Day 29, 8.0 h, read-out: Compound I Concentration, Median) was 66 ng/mL, the concentration at 8 h (Cohort 5, 650 mg QD of Form B, Day 29, 8.0 h, read-out: Compound I Concentration, Min) was 43.2 ng/mL and the concentration at 10 h (Cohort 5, 650 mg QD of Form B, Day 29, 10.0 h, read-out: Compound I Concentration, Max) was 78.2 ng/mL. It also gave a concentration at 10 h (Cohort 5, 650 mg QD of Form B, Day 29, 10.0 h, read-out: Compound I Concentration, Mean) of 58.1 ng/mL, a concentration at 10 h (Cohort 5, 650 mg QD of Form B, Day 29, 10.0 h, read-out: Compound I Concentration, Median) of 58.1 ng/mL and a concentration at 10 h (Cohort 5, 650 mg QD of Form B, Day 29, 10.0 h, read-out: Compound I Concentration, Min) of 37.9 ng/mL. It also gave a concentration at 12 h (Cohort 5, 650 mg QD of Form B, Day 29, 12.0 h, read-out: Compound I Concentration, Max) of 63.2 ng/mL, a concentration at 12 h (Cohort 5, 650 mg QD of Form B, Day 29, 12.0 h, read-out: Compound I Concentration, Mean) of 46.3 ng/mL and a concentration at 12 h (Cohort 5, 650 mg QD of Form B, Day 29, 12.0 h, read-out: Compound I Concentration, Median) of 46.3 ng/mL. For the same molecule, the concentration at 12 h (Cohort 5, 650 mg QD of Form B, Day 29, 12.0 h, read-out: Compound I Concentration, Min) was 29.4 ng/mL, the concentration at 24 h (Cohort 5, 650 mg QD of Form B, Day 29, […], read-out: Compound I Concentration, Max) was 27.8 ng/mL and the concentration at 24 h (Cohort 5, 650 mg QD of Form B, Day 29, […], read-out: Compound I Concentration, Mean) was 24.3 ng/mL. For the same molecule, the concentration at 24 h (Cohort 5, 650 mg QD of Form B, Day 29, […], read-out: Compound I Concentration, Median) was 24.3 ng/mL and the concentration at 24 h (Cohort 5, 650 mg QD of Form B, Day 29, […], read-out: Compound I Concentration, Min) was 20.7 ng/mL.
